Laboratory results reported in US7999000B2, “N-(2-amino-phenyl)-acrylamides” (Hoffmann-La Roche Inc., priority 2008, dated 2011).

Legend:
[1] = test system: klf2 promoter-luciferase construct in A204 cells; assay: klf2 reporter gene induction (p21 versus klf2 selectivity); type: cell-based; details: for p21/klf2 (RP3): relative selectivity at 3 micromolar compared with SNDX-275 (p21/klf2 ratio defined as 1.0); for p21/klf2 (RP10): relative selectivity at 10 micromolar compared with SNDX-275 (p21/klf2 ratio defined as 1.0)
Procedure: klf2 Reporter Gene Induction By Novel Compounds
The novel compounds of the present invention were tested for their ability to induce klf2 gene expression using a reporter gene assay involving A204 cells transfected with a klf2 promoter-luciferase construct. The klf2 promoter contained the MEF2 binding site for HDAC3/class IIa HDAC complex. Briefly, the day before transfection, A204 cells were seeded at 11,000 cells/well in a 96-well culture plate and incubated at 37 degrees Celsius in 5% CO2 overnight. For transfection, the medium was removed and replaced with 100 microliters/well transfection media previously prepared as follows: 5 microliters serum-free DMEM, 0.15 microliters Fugene 6 reagent, 40 ng klf2-luc, 10 ng GFP were mixed gently and incubated at room temperature for 30 minutes; then 98 microliters DMEM (with 10% FBS, 1% penicillin and streptomycin) was added to the DNA:Fugene 6 reagent complex and mixed gently. After incubating the cells for 24 hours at 37 degrees Celsius in 5% CO2, fresh media and test compounds were added to the wells and the cells further incubated for 15 hours at 37 degrees Celsius in 5% CO2. Finally, 10 ng/ml TNF-a was added and the cells further incubated for 4 hours. Cells were lysed by adding 80 microliters/well of a cell culture lysis reagent (Promega). 50 microliters of each lysate was taken for GFP detection using an excitation wavelength of 486 nm and detection at 527 nm. 100 microliters Luciferase assay reagent (Promega) was then added to every 20 microliters cell lysate for luminometer detection.

[2] = test system: histone deacetylase (HeLa nuclear extract); assay: HeLa extract HDAC fluorometric assay; type: biochemical; details: relative inhibitory potency compared with SNDX-275 at 30 micromolar
Procedure: HDAC Inhibition by Novel Compounds: HeLa Extract HDAC Fluorometric Assay
Novel compounds were tested for their ability to inhibit histone deacetylase using an in vitro deacetylation assay. The enzyme source for this assay was HeLa nuclear extract. The substrate consisted of a commercial product containing an acetylated lysine side chain (both HeLa extract and substrate are available commercially from BIOMOL Research Laboratories, Inc., Plymouth Meeting, Pa.). After deacetylation of the substrate by incubation with HeLa nuclear extract, subsequent exposure to a developing reagent produces a fluorophore that is directly proportional to the level of deacetylation. Using the substrate concentration at the Km for the HeLa nuclear extract, the deacetylation assay was performed in the presence of novel compounds at 30 micromolar and the percent enzyme inhibition relative to a known reference HDAC inhibitor (SNDX-275) was determined. […] Inhibitory activity for specific representative compounds can be found in Table 3.

[3] = test system: p21 promoter-luciferase construct in HeLa cells; assay: p21 reporter gene induction; type: cell-based; details: relative induction potency compared with SNDX-275 at 3 micromolar
Procedure: p21 Reporter Gene Induction By Novel Compounds
The novel compounds of the present invention were tested for their ability to induce p21 gene expression using a reporter gene assay involving HeLa cells transfected with a p21 promoter-luciferase construct. The p21 promoter contained the Sp1/Sp3 binding site for HDAC but not the upstream p53 binding site. Briefly, the day before transfection, HeLa cells were seeded at 11,000 cells/well in a 96-well culture plate and incubated at 37 degrees Celsius in 5% CO2 overnight. For transfection, the medium was removed and replaced with 100 microliters/well transfection media previously prepared as follows: 5 microliters serum-free DMEM, 0.15 microliters Fugene 6 reagent, 40 ng p21-luc, 10 ng GFP were mixed gently and incubated at room temperature for 30 minutes; then 98 microliters DMEM (with 10% FBS, 1% penicillin and streptomycin) was added to the DNA:Fugene 6 reagent complex and mixed gently. After incubating the cells for 24 hours at 37 degrees Celsius in 5% CO2, fresh media and test compounds were added to the wells and the cells further incubated for 15 hours at 37 degrees Celsius in 5% CO2. Cells were lysed by adding 80 microliters/well of a cell culture lysis reagent (Promega). 50 microliters of each lysate was taken for GFP detection using an excitation wavelength of 486 nm and detection at 527 nm. 100 microliters Luciferase assay reagent (Promega) was then added to every 20 microliters cell lysate for luminometer detection. […] Induction activity for specific representative compounds can be found in Table 3.

HT-29 colon cancer cells = assay: Antiproliferative activity, growth inhibition assay (MTS/WST); type: cell-based; details: Homo sapiens, 72 hour, read-out: GI50 (micromolar) HT-29
Procedure: Antiproliferative Activity Against Cancer Cell Lines By Novel Compounds
The novel compounds of the present invention were tested for their ability to inhibit growth of various cancer cell lines using in vitro growth inhibition assays described below.
Cells were seeded in 96-well culture plates (200 microliters/well at different seeding concentrations depending on cell type) and incubated overnight at 37 degrees Celsius in 5% CO2. After adding compound dilutions to the cells (DMSO concentration kept below 0.5%), the cells were incubated at 37 degrees Celsius in 5% CO2 for 72 hours. The effects on proliferation were determined by addition of MTS reagent (Promega) according to the manufacturer's instruction, followed by incubation for 2 hours at 37 degrees Celsius in 5% CO2, and finally recording the absorbance at 490 nm using an ELISA plate reader.
Similar to MTS assay except that the developer is the CCK-8 reagent (Dojindo) and the plate reader is set to 450 nm absorbance.
GI50 values against HT-29 colon cancer cells for specific representative compounds can be found in Table 3.

SMILES	p21/klf2 (RP3) [1]	p21/klf2 (RP10) [1]	HD (RP30) [2]	p21 (RP3) [3]	GI50 (HT-29 colon cancer cells)
CN(C)[C@@H]1CCN(C(C(=O)Nc2ccc(C(F)(F)F)cc2)c2ccc(/C=C/C(=O)Nc3ccccc3N)cc2)C1 (stereo partly drawn) [Example 7-6, (E)-N-(2-Amino-phenyl)-3-{4-[((R)-3-dimethylamino-pyrrolidin-1-yl)-(4-trifluoromethyl-phenylcarbamoyl)-methyl]-phenyl}-acrylamide]	2.3	2.9	175%	216%	3 µM
CCN(CC)C1CCN(C(C(=O)Nc2ccc(C(F)(F)F)cc2)c2ccc(/C=C/C(=O)Nc3ccccc3N)cc2)C1 (stereo not shown) [Example 7-7, (E)-N-(2-Amino-phenyl)-3-{4-[(3-diethylamino-pyrrolidin-1-yl)-(4-trifluoromethyl-phenylcarbamoyl)-methyl]-phenyl}-acrylamide]	2.1	2.0	183%	230%	2.3 µM
CCN(CC)C1CCN(C(C(=O)Nc2ccc(C#N)cc2)c2ccc(/C=C/C(=O)Nc3ccccc3N)cc2)C1 (stereo not shown) [Example 7-16, (E)-N-(2-Amino-phenyl)-3-{4-[(4-cyano-phenylcarbamoyl)-(3-diethylamino-pyrrolidin-1-yl)-methyl]-phenyl}-acrylamide]	0.7	0.9	159%	157%	0.2 µM
CCN(CC)C1CCN(C(C(=O)Nc2ccc(F)cc2)c2ccc(/C=C/C(=O)Nc3ccccc3N)cc2)C1 (stereo not shown) [Example 7-17, (E)-N-(2-Amino-phenyl)-3-{4-[(3-diethylamino-pyrrolidin-1-yl)-(4-fluoro-phenylcarbamoyl)-methyl]-phenyl}-acrylamide]	0.7	1.0	164%	163%	0.7 µM
CCN(CCO)C1CCN(C(C(=O)Nc2ccc(Br)cc2)c2ccc(/C=C/C(=O)Nc3ccccc3N)cc2)C1 (stereo not shown) [Example 7-29, (E)-N-(2-Amino-phenyl)-3-[4-((4-bromo-phenylcarbamoyl)-{3-[ethyl-(2-hydroxy-ethyl)-amino]-pyrrolidin-1-yl}-methyl)-phenyl]-acrylamide]	1.2	1.4	144%	293%	–
Nc1ccccc1NC(=O)/C=C/c1ccc(C(C(=O)Nc2ccc(Br)cc2)N2CCC(N3CCCCC3)C2)cc1 (stereo not shown) [Example 7-30, (E)-N-(2-Amino-phenyl)-3-{4-[(4-bromo-phenylcarbamoyl)-(3-piperidin-1-yl-pyrrolidin-1-yl)-methyl]-phenyl}-acrylamide]	1.2	0.1	111%	338%	0.7 µM
CCN(CC)C1CCN(C(C(=O)Nc2ccc(Cl)cc2)c2ccc(/C=C/C(=O)Nc3ccccc3N)cc2)C1 (stereo not shown) [Example 7]	0.8	1.2	163%	187%	0.4 µM
